Results: patent US11407792B2, “Regulating electron flow using fragmented proteins” (WILLIAM MARSH RICE UNIVERSITY, priority 2017, dated 2022)

Columns and labels:
[1] = system: sFd-35-ER; experiment: Complementation of E. coli EW11 growth by sFd-35-ER with 4-HT and other estrogen receptor modulators; format: cell-based, Escherichia coli
Procedure: Growth assay. For all growth experiments, E. coli EW11 were freshly transformed with two plasmids, one encoding the e-donor and acceptor pair (FNR and SIR) and the other encoding either a native Fd, a C42A mutant of Ml Fd that is unable to coordinate a 2Fe-2S cluster, or an engineered Fd. Starter cultures were inoculated using single colonies obtained by selecting for colonies containing both plasmids on LB-agar plates. These starter cultures were grown in deep-well 96-well plates for 18 hours at 37° C. in 1 mL of a non-selective modified M9 medium (M9c), which contained sodium phosphate, dibasic (6.8 g/L), sodium phosphate, monobasic (3 g/L), sodium chloride (0.5 g/L), ammonium chloride (1 g/L), calcium chloride (0.1 mM), magnesium sulfate (10 mM), ferric citrate (24 mg/L), p-aminobenzoic acid (2 mg/L), inositol (20 mg/L), adenine (5 mg/L), uracil (20 mg/L), tryptophan (40 mg/L), tyrosine (1.2 mg/L), and the remaining 18 amino acids (80 mg/L each). For auxotroph complementation analysis, starter cultures that had been grown to stationary phase in M9c were diluted ˜1:100 using a 96-well replicator pin into 100 μL of a selective modified M9 medium (M9sa), which is identical to M9c but lacks cysteine and methionine. […] Optical density (OD) measurements were taken every 10 minutes. To select for the Fd and e-donor/acceptor plasmids, all growth steps included chloramphenicol and streptomycin at 34 μg/mL and 100 μg/mL, respectively.
To test whether this domain-insertion strategy can be used to diversify the chemical regulation of sFd-35, the ligand-binding domain (LBD) of the human estrogen receptor (ER) was inserted after residue 35 to create sFd-35-ER (FIG. 26E).
(§1) The activity of sFd-35-ER was evaluated by expressing this protein using an aTc-inducible promoter (FIG. 31B). […] This protein was also expressed as a fusion to RFP (sFd-35-ER-RFP) to evaluate how 4-HT affects protein expression.
To evaluate how these different modulators affect sFd-35-ER ET, sFd-35-ER growth complementation was evaluated in the presence of agonists, antagonists, and an endocrine disruptor (FIG. 32D).

[2] = system: lysates derived from E. coli EW11 expressing FNR and SIR; experiment: Sulfide production assay in cell lysates (sulfidefluor-7 fluorescence); format: biochemical, Escherichia coli; conditions: no Fd added
Procedure: Cell lysates. Electrocompetent E. coli EW11 were transformed with the plasmid (pSAC01) that constitutively expresses Zea mays FNR and SIR. Cells were grown to stationary phase at 37° C. and 250 rpm in 2×YTPG medium (16 g/L tryptone, 10 g/L yeast extract, 5 g/L NaCl, 3 g/L KH2PO4, 7 g/L K2HPO4, and 18 g/L glucose) containing 100 μg/mL streptomycin. Cells from overnight cultures were diluted 1:100 in fresh 2×YTPG medium containing streptomycin, grown for 2 hours at 37° C. while shaking at 250 rpm until mid-log phase, and then shifted to 30° C. and grown for an additional 4 hours. […] Protein content in lysates was quantified using Bio-Rad Protein Assay Dye Reagent Concentrate (Bio-Rad), using bovine serum albumin (NEB) as a standard.
Sulfide production assay. […] Following NADPH or protein addition, reactions were arrayed in a Corning 96 well plate at room temperature (Cost ar #3603), transferred to an Infinite m1000 Pro plate reader (Tecan), and heated to 37° C. and shaken at 250 rpm with fluorescence readings (λex=495 nm, λem=520 nm) every 15 seconds. […]
SIR activity was monitored in desalted cell lysates using sulfidefluor-7 (Lin et al., 2013), a fluorescent probe for hydrogen sulfide. […]

[3] = system: sFd-35-ER-RFP; conditions: 4-HT in ethanol compared to ethanol alone
Chain of sFd-35-ER-RFP (P03372 311-547 limits assumed): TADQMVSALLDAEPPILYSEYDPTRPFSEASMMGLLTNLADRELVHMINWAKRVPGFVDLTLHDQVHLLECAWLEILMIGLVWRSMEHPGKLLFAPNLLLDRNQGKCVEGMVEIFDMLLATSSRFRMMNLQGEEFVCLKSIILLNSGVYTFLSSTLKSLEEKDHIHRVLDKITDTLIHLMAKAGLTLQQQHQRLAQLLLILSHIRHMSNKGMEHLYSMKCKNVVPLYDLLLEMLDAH
Procedure: Fluorescence spectroscopy.
as §1

[4] = system: split Fd fused to estrogen receptor
Chain of split Fd fused to estrogen receptor (P03372 311-547 limits assumed): as above

Chain of sFd-35-ER (P03372 311-547): as the sequence (P03372 311-547 limits assumed) above

4-hydroxytamoxifen [4-HT]
4-HT concentration at which growth of sFd-35-ER is enhanced significantly above the C42A mutant [1]: ≥ 6.25 µM
Activation of sFd-35-ER ET (growth complementation) [1]: activated
Effect of estrogen receptor modulators on complementation of E. coli EW11 by sFd-35-ER, compared to DMSO alone [1]: significantly enhance growth
EC50 ([1]; read-out: k1/2 4-HT, complementation of E. coli EW11 by sFd-35-ER): 2110 nM
sulfide production rate on adding 4-HT alone [2]: not enhanced
Effect of 4-HT on relative fluorescence of cells expressing sFd-35-ER-RFP [3]: no significant increase in fluorescence
effect of 4-HT addition alone on rate [4]: does not affect rate
time after chemical addition at which the higher rate of sulfide production is detectable ([4]; 4-HT added at t=0): ≤ 1.5 min
